TGI and GI50 data for 13 compounds are collected here from PubChem BioAssay (NCI).

Values joined by “and” are separate entries in the source; they are usually repeats but may differ in a detail not shown here. Identical values can stand only once.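 Cultured in 96-well plates, cells were exposed to test compound for 48 hours across five concentrations. Here, GI50 denotes the concentration required for 50% inhibition of growth. TGI marks complete inhibition of growth.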

Among the test systems are A549 NSCLC; HCT-116 colon; HL-60(TB) leukemia; MALME-3M melanoma; NCI-H522 lung; SK-MEL-28 melanoma; SR leukemia; UO-31 renal; NCI/ADR-RES ovarian; NCI-H23 lung.
Holding throughout (assay): inhibition of tumour cell growth, NCI panel, 48 h

`Cc1ccc(/C=C/C(=O)c2cccc3ccccc23)cc1`: the TGI is 43.2 µM with A549 NSCLC; 24.6 µM in the assay on HCT-116 colon; 28.3 µM in the assay on HL-60(TB) leukemia; 28.6 µM with MALME-3M melanoma; 34.2 µM in the assay on NCI-H522 lung; 35.4 µM in the assay with SK-MEL-28 melanoma. Further, the TGI with SR leukemia came to 78.2 µM; with UO-31 renal it was 39.7 µM.

In the case of `C[C@]12CCC3c4ccc(O)cc4CCC3C1CC[C@@]2(O)CNC(=O)/C=C/c1ccc(O)c(O)c1` (some centres not stated), the GI50 with A549 NSCLC is 2.63 µM; in the assay with HCT-116 colon it was 3.34 µM; in the assay with HL-60(TB) leukemia, 3.99 µM; in the assay with NCI-H522 lung, 2.51 µM; in the assay with NCI/ADR-RES ovarian, 23.9 µM; in the assay on SK-MEL-28 melanoma, 24.8 µM. The GI50 is 5.66 µM in the assay on SR leukemia and 3.5 µM with UO-31 renal. The TGI is 9.68 µM in the assay with A549 NSCLC; 11.2 µM in the assay on HCT-116 colon; 20.1 µM in the assay with HL-60(TB) leukemia; 5.91 µM in the assay with NCI-H522 lung; more than 100 µM in the assay with NCI/ADR-RES ovarian; 59 µM with SK-MEL-28 melanoma. Moreover, the values for the TGI in the assay with SR leukemia and with UO-31 renal were 26.7 µM and 15.7 µM, respectively.

Take `C=CC[C@H](C[C@H](C[C@H](C[C@H](C[C@H](C[C@H](C[C@H](C[C@H](C[C@H](C[C@H](CCCCC)OC)OC)OC)OC)OC)OC)OC)OC)OC)OC`: the TGI in the assay on A549 NSCLC, in the assay on HCT-116 colon, in the assay on HL-60(TB) leukemia, in the assay on MALME-3M melanoma, with NCI-H23 lung and in the assay with NCI-H522 lung was more than 100 µM each time. For the same compound, the TGI in the assay on SK-MEL-28 melanoma, in the assay with SR leukemia and in the assay on UO-31 renal was more than 100 µM in each case.

On to `N#CC(C#N)=C/C=C(\Sc1nc2ccccc2s1)c1ccc(Cl)cc1`, for which the GI50 with A549 NSCLC is 9.32 µM; in the assay on HCT-116 colon, 2.14 µM; with MALME-3M melanoma, 5.29 µM; in the assay on NCI-H23 lung, 3.56 µM; in the assay on NCI-H522 lung, 10.1 µM; in the assay on NCI/ADR-RES ovarian, 7.19 µM. The results for the GI50 in the assay on SK-MEL-28 melanoma, in the assay with SR leukemia and in the assay with UO-31 renal were 5.34 µM, 0.844 µM and 7.85 µM, respectively. The TGI was determined as 30.5 µM in the assay on A549 NSCLC; 5.78 µM with HCT-116 colon; 16.5 µM in the assay on MALME-3M melanoma; 13.2 µM in the assay with NCI-H23 lung; 41.9 µM in the assay with NCI-H522 lung; 22.6 µM in the assay with NCI/ADR-RES ovarian. In addition, the TGI with SK-MEL-28 melanoma amounted to 21.7 µM; in the assay on UO-31 renal, 29.3 µM.

Regarding `COc1cc(C2CC(C)(O)Oc3cc4c(cc32)OCO4)cc(OC)c1OC` (configuration not stated), the TGI with A549 NSCLC was more than 100 µM; in the assay with HCT-116 colon, more than 100 µM; with HL-60(TB) leukemia it was 0.638 µM; in the assay with NCI-H23 lung it was more than 100 µM; in the assay with NCI-H522 lung, 0.661 µM; in the assay on SK-MEL-28 melanoma it was more than 100 µM. For the same compound, in the assay with SR leukemia, the TGI is more than 100 µM.

With `CC1SC(c2ccc(F)cc2)N(NC(=O)C(O)c2ccccc2)C1=O` (configuration not stated), the GI50 in the assay with A549 NSCLC, in the assay on HCT-116 colon, in the assay on HL-60(TB) leukemia, with NCI-H522 lung, in the assay on NCI/ADR-RES ovarian and with SK-MEL-28 melanoma was more than 100 µM throughout. Further, the GI50 in the assay on SR leukemia and in the assay with UO-31 renal was more than 100 µM in each case. The TGI in the assay with A549 NSCLC, in the assay on HCT-116 colon, in the assay with HL-60(TB) leukemia, with NCI-H522 lung, in the assay on NCI/ADR-RES ovarian and in the assay on SK-MEL-28 melanoma was more than 100 µM in each case. Moreover, the TGI with SR leukemia and in the assay with UO-31 renal was more than 100 µM each time.

Turning to `N#C/C(=C\c1cccc(Cl)c1Cl)c1ccccc1`, the TGI in the assay on A549 NSCLC was more than 100 µM; with HCT-116 colon, more than 67.5 µM; in the assay on HL-60(TB) leukemia, more than 100 µM; with MALME-3M melanoma, more than 70 µM; with NCI-H23 lung, more than 72.9 µM; in the assay with NCI-H522 lung, more than 100 µM. For the same compound, the TGI in the assay with SK-MEL-28 melanoma is more than 100 µM; with SR leukemia, more than 80.9 µM; in the assay on UO-31 renal, more than 91.2 µM.

With `Cc1cc2c(C)[nH]nc2c(C(=O)O)c1C`, the TGI in the assay on A549 NSCLC, with HCT-116 colon, in the assay on HL-60(TB) leukemia, in the assay with NCI-H23 lung, in the assay with SK-MEL-28 melanoma and with SR leukemia was more than 100 µM throughout. This compound had a TGI with UO-31 renal of more than 100 µM.

In the case of `Cc1ccc(Oc2ccc(C)cc2N)cc1`, the TGI in the assay with A549 NSCLC, with HCT-116 colon, in the assay with HL-60(TB) leukemia, in the assay with MALME-3M melanoma, with NCI-H23 lung and with SK-MEL-28 melanoma was more than 100 µM each time. The TGI with SR leukemia and in the assay on UO-31 renal was more than 100 µM each time.

Turning to `CC(C)(C)c1cc2ccc(C(N)=O)cc2c(=O)[nH]1`, the TGI in the assay with A549 NSCLC, in the assay with HCT-116 colon, in the assay with HL-60(TB) leukemia, in the assay with MALME-3M melanoma, in the assay with NCI-H23 lung and with NCI-H522 lung was more than 100 µM each time. The TGI in the assay on SK-MEL-28 melanoma, in the assay with SR leukemia and in the assay with UO-31 renal was more than 100 µM in each case.

As to `O=CNc1ccc2c(c1)C(=O)c1ccccc1-2`, the TGI in the assay with A549 NSCLC, in the assay with HCT-116 colon, in the assay on HL-60(TB) leukemia, with NCI-H23 lung, in the assay on NCI-H522 lung and in the assay on NCI/ADR-RES ovarian was more than 100 µM in each case. For the same compound, the TGI in the assay with SK-MEL-28 melanoma, with SR leukemia and in the assay on UO-31 renal was more than 100 µM in each case.

`CC1=C2C(=C[C@@](C)(CO)[C@@H]2O)C(=O)[C@](C)(O)C12CC2`: the TGI in the assay with A549 NSCLC was 0.0885 µM and 0.2 µM; in the assay on HCT-116 colon, 0.104 µM and 0.135 µM; with HL-60(TB) leukemia, 0.0327 µM; in the assay with MALME-3M melanoma, 0.0243 µM; with NCI-H522 lung, 0.0108 µM; with NCI/ADR-RES ovarian, 0.0243 µM. Also, the TGI was 0.0339 µM and 0.0146 µM in the assay on SK-MEL-28 melanoma; 0.0422 µM in the assay on UO-31 renal. The GI50 in the assay with NCI-H23 lung is 0.3 µM.

With `COC(=O)CC(c1ccccc1)C1(c2ccccc2)SCCS1` (configuration not stated), the TGI in the assay with A549 NSCLC, with HCT-116 colon, in the assay on HL-60(TB) leukemia, in the assay with MALME-3M melanoma, in the assay on NCI-H23 lung and in the assay with NCI-H522 lung was more than 290 µM throughout. For the same compound, the TGI in the assay with SK-MEL-28 melanoma and with SR leukemia was more than 290 µM throughout.
